In ChEMBL document CHEMBL6109160, “Novel Cyclic Peptides as Interleukin-23 Inhibitor for Treating Inflammatory Disorders” (ACS Med Chem Lett, 2025):

Target: T1, Interleukin-23 receptor (Homo sapiens, UniProt Q5VWK5)
T1 sequence (Q5VWK5 whole entry): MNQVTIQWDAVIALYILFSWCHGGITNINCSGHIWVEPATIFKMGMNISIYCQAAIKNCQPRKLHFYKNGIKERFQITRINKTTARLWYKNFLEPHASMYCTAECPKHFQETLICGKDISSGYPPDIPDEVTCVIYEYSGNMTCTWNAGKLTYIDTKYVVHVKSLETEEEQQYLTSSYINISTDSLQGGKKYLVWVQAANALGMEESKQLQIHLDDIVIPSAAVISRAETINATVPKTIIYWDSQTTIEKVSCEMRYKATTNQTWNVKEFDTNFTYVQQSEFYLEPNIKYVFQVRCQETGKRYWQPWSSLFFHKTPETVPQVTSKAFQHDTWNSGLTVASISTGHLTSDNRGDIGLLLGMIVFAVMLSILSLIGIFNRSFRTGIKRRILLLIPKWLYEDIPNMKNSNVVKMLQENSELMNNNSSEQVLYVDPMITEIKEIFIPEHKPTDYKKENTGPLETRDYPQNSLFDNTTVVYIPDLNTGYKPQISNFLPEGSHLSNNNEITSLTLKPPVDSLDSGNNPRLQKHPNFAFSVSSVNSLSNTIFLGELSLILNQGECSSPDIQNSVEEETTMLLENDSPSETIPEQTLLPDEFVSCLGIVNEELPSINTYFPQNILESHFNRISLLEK
Test: Binding affinity to Interleukin-23 receptor in HEK293 cells transfected with firefly luciferase reporter incubated for 5 hrs by luminescence based analysis
Format: cell-based

An IC50 of 12 nM was found for `CC(=O)NCCCC[C@@H]1NC(=O)[C@H](Cc2c[nH]c3c(C)cccc23)NC(=O)[C@H]([C@@H](C)O)NC(=O)[C@H](CC(N)=O)NC(=O)[C@@H](NC(=O)CCOCCOCC[N+](C)(C)C)C(C)(C)SSC(C)(C)[C@@H](C(=O)N[C@@H](Cc2ccc(OCCN)cc2)C(=O)N[C@@H](Cc2ccc3ccccc3c2)C(=O)NC2(C(=O)N[C@@H](CCC(=O)O)C(=O)N[C@@H](CC(N)=O)C(=O)N[C@@H](Cc3cccnc3)C(=O)N(C)CC(N)=O)CCOCC2)NC1=O` in this work.
